From US9060971B2, “Combination pharmaceutical agents as inhibitors of HCV replication” (Enanta Pharmaceuticals, Inc., priority 2010, dated 2015)

The compounds below were run on HCV 1b genotype replicon (assay: HCV replicon drug screening assay (quantitative RT-PCR or luciferase), genotype 1b). Details: Hepatitis C virus; HCV 1b genotype replicon; quantitative RT-PCR or luciferase assay; read-out: Genotype-1b replicon EC50 Range.
Assay type: cell-based
From the text: HCV replicon cell lines (kindly provided by R. Bartenschlager) isolated from colonies as described by Lohman et. al. (Lohman et al. (1999) Science 285: 110-113, expressly incorporated by reference in its entirety) and used for all experiments. The HCV replicon has the nucleic acid sequence set forth in EMBL Accession No.: AJ242651, the coding sequence of which is from nucleotides 1801 to 8406.
The coding sequence of the published HCV replicon was synthesized and subsequently assembled in a modified plasmid pBR322 (Promega, Madison, Wis.) using standard molecular biology techniques. One replicon cell line (“SGR 11-7”) stably expresses HCV replicon RNA which consists of (i) the HCV 5′UTR fused to the first 12 amino acids of the capsid protein, (ii) the neomycin phosphotransferase gene (neo), (iii) the IRES from encephalomyocarditis virus (EMCV), and (iv) HCV NS2 to NS5B genes and the HCV 3′UTR. Another replicon cell line (“Huh-luc/neo-ET”) described by Vrolijk et. al. (Vrolijk et. al. (2003) Journal of Virological Methods 110:201-209, expressly incorporated by reference in its entirety) stably expresses HCV replicon RNA which consists of (i) the HCV 5′UTR fused to the first 12 amino acids of the capsid protein, (ii) the firefly luciferase reporter gene, (iii) the ubiquitin gene, (iv) the neomycin phosphotransferase gene (neo), (v) the IRES from encephalomyocarditis virus (EMCV), and (vi) HCV NS3 to NS5B genes that harbor cell culture adaptive mutations (E1202G, T12801, K1846T) and the HCV 3′UTR.
These cell lines are maintained at 37° C., 5% CO2, 100% relative humidity in DMEM (Cat#11965-084, Invitrogen), with 10% fetal calf serum (“FCS”, Invitrogen), 1% non-essential amino acids (Invitrogen), 1% of Glutamax (Invitrogen), 1% of 100× penicillin/streptomycin (Cat#15140-122, Invitrogen) and Geneticin (Cat#10131-027, Invitrogen) at 0.75 mg/ml or 0.5 mg/ml for 11-7 and Huh-luc/neo-ET cells, respectively.
EC50 values of single agent compounds and combinations were determined by HCV RNA detection using quantitative RT-PCR, according to the manufacturer's instructions, with a TAQMAN® One-Step RT-PCR Master Mix Reagents Kit (Cat#AB 4309169, Applied Biosystems) on an ABI Model 7500 thermocycler. The TaqMan primers to use for detecting and quantifying HCV RNA are 5′-GCTGCGGCCTGTCGAGCT-3′ (SEQ ID NO: 1), 5′-CAAGGTCGTCTCCGCATAC-3′ (SEQ ID NO: 2) and the probe 5′-FAM-[…]-BHQ-3′ (SEQ ID NO: 3) obtained from Integrated DNA Technologies. HCV RNA is normalized to GAPDH RNA levels in drug-treated cells, which is detected and quantified using the Human GAPDH Endogenous Control Mix (Applied Biosystems, AB 4310884E). Total cellular RNA is purified from 96-well plates using the RNAqueous 96 kit (Ambion, Cat#AM1812). Chemical agent cytotoxicity was evaluated using an MTS assay according to the manufacturer's directions (Promega).
The compounds described herein can be effective against the HCV 1b genotype. It should also be understood that the compounds can inhibit multiple genotypes of HCV. In one embodiment, compounds of Formula (I) are active against the 1a, 1b, 2a, 2b, 3a, 4a, and 5a genotypes. […] The EC50 ranges were classified into the following groups: A>10 nM; B 1-10 nM; C<1 nM. The potential cytotoxicities of each agent were analyzed in parallel by MTS assay and are greater than 3 uM for all agents.
`CC[C@H](C)[C@H](NC(=O)OC)C(=O)N1CCC[C@H]1c1nc2cc(-c3ccc4cc(-c5c[nH]c([C@@H]6CCCN6C(=O)[C@@H](NC(=O)OC)[C@@H](C)OC)n5)ccc4c3)ccc2[nH]1` [Compound 54] was tested, and the EC50 was under 1 nM.
Compound `COC(=O)N[C@H](C(=O)N1CCC[C@H]1c1nc(C#Cc2ccc(-c3ccc4[nH]c([C@@H]5CCCN5C(=O)[C@@H](NC(=O)OC)C(C)C)nc4c3)cc2)c[nH]1)C(C)C` [Compound 55] has an EC50 of under 1 nM.
For `COC(=O)N[C@H](C(=O)N1CCC[C@H]1c1nc(CCc2ccc(-c3ccc4[nH]c([C@@H]5CCCN5C(=O)[C@@H](NC(=O)OC)C(C)C)nc4c3)cc2)c[nH]1)C(C)C` [Compound 56], the EC50 was under 1 nM.
In the case of `COC(=O)N[C@H](C(=O)N1CCC[C@H]1c1nc(C#Cc2ccc3cc(-c4ccc5[nH]c([C@@H]6CCCN6C(=O)[C@@H](NC(=O)OC)C(C)C)nc5c4)ccc3c2)c[nH]1)C(C)C` [Compound 57], the EC50 is reported as under 1 nM.
For `COC(=O)N[C@H](C(=O)N1CCC[C@H]1c1nc(CCc2ccc3cc(-c4ccc5[nH]c([C@@H]6CCCN6C(=O)[C@@H](NC(=O)OC)C(C)C)nc5c4)ccc3c2)c[nH]1)C(C)C` [Compound 58], the EC50 was under 1 nM.
`COC(=O)N[C@H](C(=O)N1CCC[C@H]1c1nc(-c2ccc(C#Cc3ccc4[nH]c([C@@H]5CCCN5C(=O)[C@@H](NC(=O)OC)[C@@H](C)OC)nc4c3)cc2)c[nH]1)[C@@H](C)OC` [Compound 59] gave an EC50 of under 1 nM.
`COC(=O)N[C@H](C(=O)N1CCC[C@H]1c1nc(-c2ccc3cc(C#Cc4ccc5[nH]c([C@@H]6CCCN6C(=O)[C@@H](NC(=O)OC)C(C)C)nc5c4)ccc3c2)c[nH]1)C(C)C` [Compound 60] gave an EC50 of under 1 nM.
With `COC(=O)N[C@H](C(=O)N1CCC[C@H]1c1nc(-c2ccc3cc(/C=C/c4ccc5[nH]c([C@@H]6CCCN6C(=O)[C@@H](NC(=O)OC)C(C)C)nc5c4)ccc3c2)c[nH]1)C(C)C` [Compound 61] the EC50 was under 1 nM.
`COC(=O)N[C@H](C(=O)N1CCC[C@H]1c1nc(-c2ccc(C#Cc3ccc4[nH]c([C@@H]5CCCN5C(=O)[C@@H](OC(=O)OC)C(C)C)nc4c3)cc2)c[nH]1)C(C)C` [Compound 62] showed an EC50 of under 1 nM.
With `CCOC(=O)N[C@H](C(=O)N1CCC[C@H]1c1nc2cc(C#Cc3ccc(-c4c[nH]c([C@@H]5CCCN5C(=O)[C@@H](NC(=O)OC)C(C)C)n4)cc3)ccc2[nH]1)C(C)C` [Compound 63] the EC50 was under 1 nM.
For `COC(=O)N[C@H](C(=O)N1CCC[C@H]1c1nc(-c2ccc(C#Cc3cc(F)c4[nH]c([C@@H]5CCCN5C(=O)[C@@H](NC(=O)OC)C(C)C)nc4c3)cc2)c[nH]1)C(C)C` [Compound 64], the EC50 was under 1 nM.
For `COC(=O)N[C@H](C(=O)N1CCC[C@H]1c1nc(-c2ccc(C#Cc3cc4nc([C@@H]5CCCN5C(=O)[C@@H](NC(=O)OC)C(C)C)[nH]c4cc3Cl)cc2)c[nH]1)C(C)C` [Compound 65], the EC50 was under 1 nM.
`COC(=O)N[C@H](C(=O)N1CCC[C@H]1c1nc(-c2ccc(C#Cc3ccc4[nH]c([C@@H]5CC(=O)CN5C(=O)[C@@H](NC(=O)OC)C(C)C)nc4c3)cc2)c[nH]1)C(C)C` [Compound 66] gave an EC50 of under 1 nM.
For `[2H]c1c([2H])c(-c2c[nH]c([C@@H]3CCCN3C(=O)[C@@H](NC(=O)OC)C(C)C)n2)c([2H])c([2H])c1C#Cc1ccc2[nH]c([C@@H]3CCCN3C(=O)[C@@H](NC(=O)OC)C(C)C)nc2c1` [Compound 67], the EC50 was under 1 nM.
`COC(=O)N[C@H](C(=O)N1CCC[C@H]1c1nc(-c2ccc3cc(-c4cc5nc([C@@H]6CCCN6C(=O)[C@@H](NC(=O)OC)C(C)C)[nH]c5cc4Cl)ccc3c2)c[nH]1)C(C)C` [Compound 68] showed an EC50 of under 1 nM.
`COC(=O)N[C@H](C(=O)N1CCC[C@H]1c1nc(-c2ccc(/C=C/c3ccc4[nH]c([C@@H]5CCCN5C(=O)[C@@H](NC(=O)OC)C(C)C)nc4c3)cc2)c[nH]1)C(C)C` [Compound 69] was tested, and the EC50 was under 1 nM.
`C=C(c1ccc(-c2c[nH]c([C@@H]3CCCN3C(=O)[C@@H](NC(=O)OC)C(C)C)n2)cc1)c1ccc2nc([C@@H]3CCCN3C(=O)[C@@H](NC(=O)OC)C(C)C)[nH]c2c1` [Compound 70] showed an EC50 of under 1 nM.
`COC(=O)N[C@H](C(=O)N1CCC[C@H]1c1nc(-c2ccc(CCc3ccc4[nH]c([C@@H]5CCCN5C(=O)[C@@H](NC(=O)OC)C(C)C)nc4c3)cc2)c[nH]1)C(C)C` [Compound 71] showed an EC50 of under 1 nM.
For `COC(=O)N[C@H](C(=O)N1CCC[C@H]1c1ncc(-c2ccc([C@H]3C[C@@H]3c3ccc4nc([C@@H]5CCCN5C(=O)[C@@H](NC(=O)OC)C(C)C)[nH]c4c3)cc2)[nH]1)C(C)C` [Compound 72], the EC50 was under 1 nM.
Work on `COC(=O)N[C@H](C(=O)N1CCC[C@H]1c1ncc(-c2ccc([C@@H]3C[C@H]3c3ccc4nc([C@@H]5CCCN5C(=O)[C@@H](NC(=O)OC)C(C)C)[nH]c4c3)cc2)[nH]1)C(C)C` [Compound 73] yielded an EC50 of under 1 nM.
Compound `COC(=O)N[C@H](C(=O)N1CCC[C@H]1c1ncc(-c2ccc(-c3ccc(-c4ccc5nc([C@@H]6CCCN6C(=O)[C@@H](NC(=O)OC)C(C)C)[nH]c5c4)cc3)cc2)[nH]1)C(C)C` [Compound 74] has an EC50 of under 1 nM.
In the case of `COC(=O)N[C@H](C(=O)N1CCC[C@H]1c1nc(-c2ccc(C#Cc3ccc4[nH]c([C@@H]5CCCN5C(=O)OC(C)(C)C)nc4c3)cc2)c[nH]1)C(C)C` [Compound 75], the EC50 is reported as 1 to 10 nM.
In the case of `COC(=O)N[C@@H](C)C(=O)N1CCC[C@H]1c1nc2cc(C#Cc3ccc(-c4c[nH]c([C@@H]5CCCN5C(=O)[C@@H](NC(=O)OC)C(C)C)n4)cc3)ccc2[nH]1` [Compound 76], the EC50 is reported as under 1 nM.
`CC[C@H](NC(=O)OC)C(=O)N1CCC[C@H]1c1nc2cc(C#Cc3ccc(-c4c[nH]c([C@@H]5CCCN5C(=O)[C@@H](NC(=O)OC)C(C)C)n4)cc3)ccc2[nH]1` [Compound 77] showed an EC50 of under 1 nM.
`CCC[C@H](NC(=O)OC)C(=O)N1CCC[C@H]1c1nc2cc(C#Cc3ccc(-c4c[nH]c([C@@H]5CCCN5C(=O)[C@@H](NC(=O)OC)C(C)C)n4)cc3)ccc2[nH]1` [Compound 78] was tested, and the EC50 was under 1 nM.
With `COC(=O)N[C@H](C(=O)N1CCC[C@H]1c1nc(-c2ccc(C#Cc3ccc4[nH]c([C@@H]5CCCN5C(=O)[C@H](NC(=O)OC)c5ccccc5)nc4c3)cc2)c[nH]1)C(C)C` [Compound 79] the EC50 was under 1 nM.
`COC(=O)N[C@H](C(=O)N1CCC[C@H]1c1nc(-c2ccc(C#Cc3ccc4[nH]c([C@@H]5CCCN5C(=O)[C@@H](NC(=O)OC)[C@@H](C)OC)nc4c3)cc2)c[nH]1)C(C)C` [Compound 80] gave an EC50 of under 1 nM.
Compound `COC(=O)N[C@H](C(=O)N1CCC[C@H]1c1nc(-c2ccc(C#Cc3ccc4[nH]c([C@@H]5CCCN5C(=O)[C@@H](NC(C)=O)C(C)C)nc4c3)cc2)c[nH]1)C(C)C` [Compound 81] has an EC50 of under 1 nM.
Work on `COC(=O)N[C@H](C(=O)N1CCC[C@H]1c1nc(-c2ccc(C#Cc3ccc4[nH]c([C@@H]5CCCN5C(=O)[C@@H](c5ccccc5)C(C)C)nc4c3)cc2)c[nH]1)C(C)C` [Compound 82] yielded an EC50 of under 1 nM.
With `COC(=O)N[C@H](C(=O)N1CCC[C@H]1c1nc(-c2ccc(C#Cc3ccc4[nH]c([C@@H]5CCCN5C(=O)[C@H](NC(=O)OC)C(C)C)nc4c3)cc2)c[nH]1)C(C)C` [Compound 83] the EC50 was under 1 nM.
Work on `COC(=O)N[C@H](C(=O)N1CCC[C@H]1c1nc2cc(C#Cc3ccc(-c4c[nH]c([C@@H]5CCCN5C(=O)[C@@H](NC(=O)OC)C(C)C)n4)cc3)ccc2[nH]1)c1ccccc1` [Compound 84] yielded an EC50 of under 1 nM.
Compound `COC(=O)N[C@H](C(=O)N1CCC[C@H]1c1nc2cc(C#Cc3ccc(-c4c[nH]c([C@@H]5CCCN5C(=O)OC(C)(C)C)n4)cc3)ccc2[nH]1)C(C)C` [Compound 85] has an EC50 of under 1 nM.
